{"source": "the supplement of paper PMC10307832", "assay_in_all_cases": "relative viability (nuclei count vs DMSO), 5 days (fraction); higher = more cells survive", "key": {"NCI-H2009": {"test_system": "NCI-H2009", "in_short": "(§1)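 Lung cancer cell lines were seeded in 1536-well plates and dosed by pin tool the next day, with either a single drug or a fixed anchor-drug dose combined with five library-drug doses (not always all listed) spaced in √10 steps. Five days later, one step fixed the cells and stained their nuclei (final 0.05% Triton X-100, 1% formaldehyde, 1 ug/ml Hoechst), and nuclei were counted on 4× images. Relative viability is the nuclei count in treated wells divided by the count in vehicle wells, and each value is the median of duplicate plates.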"}, "NCI-H2347": {"test_system": "NCI-H2347", "in_short": "as §1"}, "COR-L 105": {"test_system": "COR-L 105", "in_short": "as §1"}, "NCI-H2023": {"test_system": "NCI-H2023", "in_short": "as §1"}, "NCI-H1792": {"test_system": "NCI-H1792", "in_short": "as §1"}, "HCC-366": {"test_system": "HCC-366", "in_short": "as §1"}, "NCI-H1755": {"test_system": "NCI-H1755", "in_short": "as §1"}, "NCI-H23": {"test_system": "NCI-H23", "in_short": "as §1"}, "HCC-15": {"test_system": "HCC-15", "in_short": "as §1"}, "NCI-H1793": {"test_system": "NCI-H1793", "in_short": "as §1"}, "NCI-H1437": {"test_system": "NCI-H1437", "in_short": "as §1"}, "NCI-H650": {"test_system": "NCI-H650", "in_short": "as §1"}, "NCI-H1915": {"test_system": "NCI-H1915", "in_short": "as §1"}, "LC-2-ad": {"test_system": "LC-2-ad", "in_short": "as §1"}, "PC-14": {"test_system": "PC-14", "in_short": "as §1"}, "NCI-H1395": {"test_system": "NCI-H1395", "in_short": "as §1"}, "COR-L23": {"test_system": "COR-L23", "in_short": "as §1"}, "201T": {"test_system": "201T", "in_short": "as §1"}, "EMC-BAC-2": {"test_system": "EMC-BAC-2", "in_short": "as §1"}, "NCI-H358": {"test_system": "NCI-H358", "in_short": "as §1"}, "SK-MES-1": {"test_system": "SK-MES-1", "in_short": "as §1"}}, "data": [{"compound": "Cc1cn(-c2cc(NC(=O)c3ccc(C)c(Nc4nccc(-c5cccnc5)n4)c3)cc(C(F)(F)F)c2)cn1", "note": "[Nilotinib] + CS(=O)(=O)N1CCN(Cc2cc3nc(-c4cccc5[nH]ncc45)nc(N4CCOCC4)c3s2)CC1 [Pictilisib] (partner 1 µM)", "values": [{"measurement": "relative viability", "setting": "NCI-H2009; first compound 0.001 µM", "result": 0.79}, {"measurement": "relative viability", "setting": "NCI-H2009; first compound 0.003162 µM", "result": 0.913}, {"measurement": "relative viability", "setting": "NCI-H2009; first compound 0.01 µM", "result": 0.958}, {"measurement": "relative viability", "setting": "NCI-H2009; first compound 0.03162 µM", "result": 0.655}, {"measurement": "relative viability", "setting": "NCI-H2009; first compound 0.1 µM", "result": 0.187}, {"measurement": "relative viability", "setting": "NCI-H2347; first compound 0.001 µM", "result": 0.644}, {"measurement": "relative viability", "setting": "NCI-H2347; first compound 0.003162 µM", "result": 0.679}, {"measurement": "relative viability", "setting": "NCI-H2347; first compound 0.01 µM", "result": 0.717}, {"measurement": "relative viability", "setting": "NCI-H2347; first compound 0.03162 µM", "result": 0.635}, {"measurement": "relative viability", "setting": "NCI-H2347; first compound 0.1 µM", "result": 0.401}, {"measurement": "relative viability", "setting": "COR-L 105; first compound 0.001 µM", "result": 0.435}, {"measurement": "relative viability", "setting": "COR-L 105; first compound 0.01 µM", "result": 0.407}, {"measurement": "relative viability", "setting": "COR-L 105; first compound 0.03162 µM", "result": 0.437}, {"measurement": "relative viability", "setting": "COR-L 105; first compound 0.1 µM", "result": 0.331}, {"measurement": "relative viability", "setting": "NCI-H2023; first compound 0.001 µM", "result": 0.225}, {"measurement": "relative viability", "setting": "NCI-H2023; first compound 0.003162 µM", "result": 0.192}, {"measurement": "relative viability", "setting": "NCI-H2023; first compound 0.01 µM", "result": 0.226}, {"measurement": "relative viability", "setting": "NCI-H2023; first compound 0.03162 µM", "result": 0.221}, {"measurement": "relative viability", "setting": "NCI-H2023; first compound 0.1 µM", "result": 0.101}, {"measurement": "relative viability", "setting": "NCI-H1792; first compound 0.001 µM", "result": 0.209}, {"measurement": "relative viability", "setting": "NCI-H1792; first compound 0.01 µM", "result": 0.266}, {"measurement": "relative viability", "setting": "HCC-366; first compound 0.001 µM", "result": 0.161}, {"measurement": "relative viability", "setting": "HCC-366; first compound 0.01 µM", "result": 0.133}, {"measurement": "relative viability", "setting": "HCC-366; first compound 0.03162 µM", "result": 0.111}, {"measurement": "relative viability", "setting": "HCC-366; first compound 0.1 µM", "result": 0.137}, {"measurement": "relative viability", "setting": "NCI-H1755; first compound 0.001 µM", "result": 0.445}, {"measurement": "relative viability", "setting": "NCI-H1755; first compound 0.003162 µM", "result": 0.466}, {"measurement": "relative viability", "setting": "NCI-H1755; first compound 0.01 µM", "result": 0.411}, {"measurement": "relative viability", "setting": "NCI-H1755; first compound 0.03162 µM", "result": 0.34}, {"measurement": "relative viability", "setting": "NCI-H1755; first compound 0.1 µM", "result": 0.261}, {"measurement": "relative viability", "setting": "NCI-H23; first compound 0.001 µM", "result": 0.411}, {"measurement": "relative viability", "setting": "NCI-H23; first compound 0.003162 µM", "result": 0.498}, {"measurement": "relative viability", "setting": "NCI-H23; first compound 0.01 µM", "result": 0.546}, {"measurement": "relative viability", "setting": "NCI-H23; first compound 0.03162 µM", "result": 0.348}, {"measurement": "relative viability", "setting": "NCI-H23; first compound 0.1 µM", "result": 0.403}, {"measurement": "relative viability", "setting": "HCC-15; first compound 0.001 µM", "result": 0.703}, {"measurement": "relative viability", "setting": "HCC-15; first compound 0.003162 µM", "result": 0.874}, {"measurement": "relative viability", "setting": "HCC-15; first compound 0.01 µM", "result": 0.843}, {"measurement": "relative viability", "setting": "HCC-15; first compound 0.03162 µM", "result": 0.542}, {"measurement": "relative viability", "setting": "HCC-15; first compound 0.1 µM", "result": 0.301}, {"measurement": "relative viability", "setting": "NCI-H1793; first compound 0.003162 µM", "result": 0.32}, {"measurement": "relative viability", "setting": "NCI-H1793; first compound 0.01 µM", "result": 0.31}, {"measurement": "relative viability", "setting": "NCI-H1793; first compound 0.03162 µM", "result": 0.31}, {"measurement": "relative viability", "setting": "NCI-H1793; first compound 0.1 µM", "result": 0.235}, {"measurement": "relative viability", "setting": "NCI-H1437; first compound 0.001 µM", "result": 0.381}, {"measurement": "relative viability", "setting": "NCI-H1437; first compound 0.003162 µM", "result": 0.414}, {"measurement": "relative viability", "setting": "NCI-H1437; first compound 0.01 µM", "result": 0.373}, {"measurement": "relative viability", "setting": "NCI-H1437; first compound 0.03162 µM", "result": 0.47}, {"measurement": "relative viability", "setting": "NCI-H1437; first compound 0.1 µM", "result": 0.44}, {"measurement": "relative viability", "setting": "NCI-H650; first compound 0.001 µM", "result": 0.817}, {"measurement": "relative viability", "setting": "NCI-H650; first compound 0.003162 µM", "result": 0.775}, {"measurement": "relative viability", "setting": "NCI-H650; first compound 0.01 µM", "result": 0.841}, {"measurement": "relative viability", "setting": "NCI-H650; first compound 0.03162 µM", "result": 0.853}, {"measurement": "relative viability", "setting": "NCI-H650; first compound 0.1 µM", "result": 0.767}, {"measurement": "relative viability", "setting": "NCI-H1915; first compound 0.001 µM", "result": 0.958}, {"measurement": "relative viability", "setting": "NCI-H1915; first compound 0.003162 µM", "result": 1.02}, {"measurement": "relative viability", "setting": "NCI-H1915; first compound 0.01 µM", "result": 0.903}, {"measurement": "relative viability", "setting": "NCI-H1915; first compound 0.03162 µM", "result": 0.993}, {"measurement": "relative viability", "setting": "NCI-H1915; first compound 0.1 µM", "result": 0.408}, {"measurement": "relative viability", "setting": "LC-2-ad; first compound 0.001 µM", "result": 0.385}, {"measurement": "relative viability", "setting": "LC-2-ad; first compound 0.003162 µM", "result": 0.518}, {"measurement": "relative viability", "setting": "LC-2-ad; first compound 0.01 µM", "result": 0.547}, {"measurement": "relative viability", "setting": "LC-2-ad; first compound 0.03162 µM", "result": 0.379}, {"measurement": "relative viability", "setting": "LC-2-ad; first compound 0.1 µM", "result": 0.117}, {"measurement": "relative viability", "setting": "PC-14; first compound 0.003162 µM", "result": 0.83}, {"measurement": "relative viability", "setting": "PC-14; first compound 0.01 µM", "result": 0.841}, {"measurement": "relative viability", "setting": "PC-14; first compound 0.03162 µM", "result": 0.503}, {"measurement": "relative viability", "setting": "PC-14; first compound 0.1 µM", "result": 0.664}, {"measurement": "relative viability", "setting": "NCI-H1395; first compound 0.001 µM", "result": 0.711}, {"measurement": "relative viability", "setting": "NCI-H1395; first compound 0.003162 µM", "result": 0.581}, {"measurement": "relative viability", "setting": "NCI-H1395; first compound 0.01 µM", "result": 0.566}, {"measurement": "relative viability", "setting": "NCI-H1395; first compound 0.03162 µM", "result": 0.552}, {"measurement": "relative viability", "setting": "NCI-H1395; first compound 0.1 µM", "result": 0.401}, {"measurement": "relative viability", "setting": "COR-L23; first compound 0.001 µM", "result": 0.777}, {"measurement": "relative viability", "setting": "COR-L23; first compound 0.003162 µM", "result": 1.01}, {"measurement": "relative viability", "setting": "COR-L23; first compound 0.01 µM", "result": 1.4}, {"measurement": "relative viability", "setting": "COR-L23; first compound 0.03162 µM", "result": 0.901}, {"measurement": "relative viability", "setting": "COR-L23; first compound 0.1 µM", "result": 0.607}, {"measurement": "relative viability", "setting": "201T; first compound 0.001 µM", "result": 0.732}, {"measurement": "relative viability", "setting": "201T; first compound 0.003162 µM", "result": 0.742}, {"measurement": "relative viability", "setting": "201T; first compound 0.01 µM", "result": 0.531}, {"measurement": "relative viability", "setting": "201T; first compound 0.1 µM", "result": 0.459}, {"measurement": "relative viability", "setting": "EMC-BAC-2; first compound 0.001 µM", "result": 0.528}, {"measurement": "relative viability", "setting": "EMC-BAC-2; first compound 0.003162 µM", "result": 0.538}, {"measurement": "relative viability", "setting": "EMC-BAC-2; first compound 0.01 µM", "result": 0.606}, {"measurement": "relative viability", "setting": "EMC-BAC-2; first compound 0.03162 µM", "result": 0.486}, {"measurement": "relative viability", "setting": "EMC-BAC-2; first compound 0.1 µM", "result": 0.479}, {"measurement": "relative viability", "setting": "NCI-H358; first compound 0.001 µM", "result": 0.375}, {"measurement": "relative viability", "setting": "NCI-H358; first compound 0.003162 µM", "result": 0.438}, {"measurement": "relative viability", "setting": "NCI-H358; first compound 0.01 µM", "result": 0.348}, {"measurement": "relative viability", "setting": "NCI-H358; first compound 0.03162 µM", "result": 0.444}, {"measurement": "relative viability", "setting": "NCI-H358; first compound 0.1 µM", "result": 0.301}, {"measurement": "relative viability", "setting": "SK-MES-1; first compound 0.001 µM", "result": 0.433}, {"measurement": "relative viability", "setting": "SK-MES-1; first compound 0.003162 µM", "result": 0.447}, {"measurement": "relative viability", "setting": "SK-MES-1; first compound 0.01 µM", "result": 0.424}, {"measurement": "relative viability", "setting": "SK-MES-1; first compound 0.03162 µM", "result": 0.396}, {"measurement": "relative viability", "setting": "SK-MES-1; first compound 0.1 µM", "result": 0.465}]}]}
